These results are taken from US11607384B2, “Lipid emulsified drug delivery systems for chemoprevention and treatment” (WESTERN UNIVERSITY OF HEALTH SCIENCES, priority 2017, dated 2023).

For assay [1], the system named is MIA-PaCa-2 pancreatic cancer cells. Kind of assay: Colorimetric MTS cytotoxicity assay in MIA-PaCa-2 cells. The assay is classed as cell-based, Human. The settings on record: for IC50: MIA-PaCa-2, 72 h. For orientation: Formazan colour is commonly taken as a measure of viable cells.
Protocol: (§1) Human PC cells MIA PaCa-2 and Panc-1 were obtained from American type culture collection (ATCC) (Rockville, Md.). Cells were maintained in Dulbecco's modified Eagle's medium (DMEM) containing 10% fetal bovine serum (FBS) obtained from ATCC. Cells were cultured at 37° C. in a humidified atmosphere of 5% CO2 and 95% air.
(§2) The cell viability assay was performed according to manufacturer's protocol with the Promega CellTitre 96 Aqueous MTS reagent (Madison, Wis., USA). Briefly, 7.5×10^3 cells were seeded in 96-well plates and incubated overnight. […] At the end of the incubation period, the growth medium was removed followed by addition of 100 μl media consisting of 20% MTS and 1% of phenazine methosulfate (PMS) and the mixture was incubated for 2 h at 37° C. MTS is bio-reduced by the cells into formazan which could be measured using a microplate reader at 490 nm. Thus, the quantity of formazan product measured by absorbance is directly proportional to the number of living cells in culture. IC50 values were determined using Graph Pad Prism software (San Diego, Calif., USA). All analysis was performed in triplicate and replicated.
A study to determine IC50 (inhibitory concentration to kill 50% of cancer cells) in in vitro cell line cultures of pancreatic cancer cell line was performed.
The cell viability assay was performed according to the manufacturer's protocol with the Promega CellTitre 96 Aqueous MTS reagent (Madison, Wis., USA). Briefly, 7.5×10^3 cells were seeded in 96-well plates and were incubated overnight. The cells were treated with different concentrations of treatment groups followed by incubation for a period of 72 hours. At the end of the incubation period, the growth medium was removed followed by addition of 100 μl media consisting of 20% MTS and 1% of phenazine methosulfate (PMS) and the mixture was incubated for 2 h at 37° C. MTS is bio-reduced by the cells into formazan which could be measured using a microplate reader at 490 nm. Thus, the quantity of formazan measured by the absorbance is directly proportional to the number of living cells in culture. […] All analysis was performed in triplicate.
(§3) The cytotoxicity of the various treatment groups were evaluated using a colorimetric MTS assay. The cell viability assay was performed according to the manufacturer's protocol with the Promega CellTitre 96 Aqueous MTS reagent (Madison, Wis., USA). Briefly, 7.5×10^3 cells were seeded in 96-well plates and were incubated overnight. The cells were treated with different concentrations of treatment groups followed by incubation for a period of 72 hours. At the end of the incubation period, the growth medium was removed followed by addition of 100 μl media consisting of 20% MTS and 1% of phenazine methosulfate (PMS) and the mixture was incubated for 2 h at 37° C. MTS is bio-reduced by the cells into formazan which could be measured using a microplate reader at 490 nm. Thus, the quantity of formazan measured by the absorbance is directly proportional to the number of living cells in culture.
Cytotoxicity was evaluated in Mia PaCa 2 pancreatic cancer cells using the colorimetric MTS assay, as described above.
A study to determine IC50 in in vitro cell line cultures of pancreatic cancer cell lines was performed. […] Cytotoxicity was evaluated using the colorometric MTS assay. The cell viability assay was performed according to the manufacturer's protocol with the Promega Cell Titre 96 Aqueous MTS reagent (Madison, Wis., USA). Briefly, 7.5×10^6 cells were seeded in 96-well plates and were incubated overnight. The cells were treated with different concentrations of treatment groups followed by incubation for a period of 72 h.
In assay [2] the test system is Panc-1 pancreatic cancer cells. Kind of assay: Colorimetric MTS cytotoxicity assay in Panc-1 cells. The settings on record: Panc-1, 72 h. The class given is cell-based, Human.
Protocol: as §1, §2, §3
The cell viability assay was performed according to the manufacturer's protocol with the Promega Cell Titre 96 Aqueous MTS reagent (Madison, Wis., USA). Briefly, 7.5×10^3 cells were seeded in 96-well plates and were incubated overnight. The cells were treated with different concentrations of treatment groups followed by incubation for a period of 72 h. At the end of the incubation period, the growth medium was removed followed by addition of 100 μl media consisting of 20% MTS and 1% of phenazine methosulfate (PMS) and the mixture was incubated for 2 h at 37° C. MTS is bio-reduced by the cells into formazan which could be measured using a microplate reader at 490 nm. Thus, the quantity of formazan measured by the absorbance is directly proportional to the number of living cells in culture.
A study to determine IC50 in in vitro cell line cultures of pancreatic cancer cell lines was performed. […] Cytotoxicity was evaluated using the colorometric MTS assay. […] MTS is bio-reduced by the cells into formazan which could be measured using a microplate reader at 490 nm. Thus, the quantity of formazan measured by the absorbance is directly proportional to the number of living cells in culture.
A study to determine IC50 in in vitro cell line cultures of pancreatic cancer cell lines was performed. […] Cytotoxicity was evaluated using the colorometric MTS assay.

For orientation: IC50 means the point on the concentration scale where inhibition reaches its midpoint. For `CCOC(=O)N1CCC(=C2c3ccc(Cl)cc3CCc3cccnc32)CC1` [LOR (free), Loratadine], the IC50 is 326 µM in assay [1] (Homo sapiens, Table 4, MTS) and 357 µM in assay [2] (Homo sapiens, Table 9, MTS).
Turning to `Nc1ccn([C@@H]2O[C@H](CO)[C@@H](O)C2(F)F)c(=O)n1` [Gemcitabine], the IC50 in assay [1] (Homo sapiens, Table 14, varied Gemcitabine, fixed LOR (free or system 2) 125 μM, Sulforaphane 5 μM) worked out at 692 µM; in assay [2] (Homo sapiens, Table 16, varied Gemcitabine, fixed LOR (free or system 2) 125 μM, Sulforaphane 5 μM), 539 µM.
Turning to `CC(=O)O[C@H]1C(=O)[C@@]2(C)[C@H]([C@H](OC(=O)c3ccccc3)[C@]3(O)C[C@H](OC(=O)[C@H](O)[C@@H](NC(=O)c4ccccc4)c4ccccc4)C(C)=C1C3(C)C)[C@]1(OC(C)=O)CO[C@@H]1C[C@@H]2O` [Paclitaxel], the IC50 in assay [1] (Homo sapiens, Table 18, varied Paclitaxel, fixed LOR (free or system 2) 125 μM, Sulforaphane 5 μM) came to 1.96 µM; in assay [2] (Homo sapiens, Table 20, varied Paclitaxel, fixed LOR (free or system 2) 125 μM, Sulforaphane 5 μM) it was 2.33 µM.
As to `C[S+]([O-])CCCCN=C=S` (centres unmarked) [Sulforaphane (free), Sulforaphane], in assay [1] (Mia PaCa 2, at the concentration of 5 μM), the cell inhibition result was “did not show any significant cell inhibition”. Also, the IC50 in assay [1] (Table 5, MTS, combinations with fixed free Sulforaphane 5 μM) is 92.2 µM; in assay [1] (Table 6, MTS, combinations with fixed free Sulforaphane 5 μM) it was 92.2 µM; in assay [2] (Table 10, MTS, LOR alone or in combination with free Sulforaphane) it was 99.6 µM; in assay [2] (Table 11, MTS, DES alone or in combination with free Sulforaphane), 99.6 µM.
